According to ChEMBL document CHEMBL1201862, “PubChem BioAssay data set” (2004):
Activity calls are given as the source filed them.

Key:
NS3 = NS3 (Hepatitis C virus, UniProt A3EZJ3); test: PubChem AID 2173; design: species or system Hepacivirus hominis
[1] = Late-stage probe development counterscreen for inhibitors of the Hepatitis C Virus non-structural protein 3 helicase (NS3): luminescence-based cell-based dose response assay to determine whether compounds that inhibit replication of HCV RNA replicon are cytotoxic. [Related pubchem assays (depositor defined):AID1800, AID1830, AID1845, AID1943, AID1945, AID2172, AID2173, AID2474, AID2476]; type: functional
Cysteine protease ATG4B [2] = molecular target: T1, Cysteine protease ATG4B (Homo sapiens, UniProt Q9Y4P1); test: autophagin-1 cysteine protease inhibition – biochemical, fluorescence, set 2, dose response (AID 588584); type: functional
T1 sequence (Q9Y4P1 whole entry): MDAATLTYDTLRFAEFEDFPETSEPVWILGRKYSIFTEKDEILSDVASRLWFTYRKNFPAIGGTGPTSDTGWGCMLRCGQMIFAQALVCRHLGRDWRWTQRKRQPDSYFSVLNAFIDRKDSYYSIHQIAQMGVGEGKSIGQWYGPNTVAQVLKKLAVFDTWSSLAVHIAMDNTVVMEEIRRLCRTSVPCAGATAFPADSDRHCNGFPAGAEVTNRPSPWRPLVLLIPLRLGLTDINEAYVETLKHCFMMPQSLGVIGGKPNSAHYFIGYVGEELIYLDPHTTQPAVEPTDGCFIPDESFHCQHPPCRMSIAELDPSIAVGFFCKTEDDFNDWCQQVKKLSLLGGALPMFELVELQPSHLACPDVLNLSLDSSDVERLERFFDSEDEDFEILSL

cells [3] = type: functional, cell-based
Phospholipase A2 [4] = molecular target: T2, Phospholipase A2 (Homo sapiens, UniProt P04054); test: phospholipase A2 activity inhibition – biochemical, set 2, counter-screen for ATG4B inhibitor project, dose response (AID 588586); type: functional
T2 sequence (P04054 whole entry): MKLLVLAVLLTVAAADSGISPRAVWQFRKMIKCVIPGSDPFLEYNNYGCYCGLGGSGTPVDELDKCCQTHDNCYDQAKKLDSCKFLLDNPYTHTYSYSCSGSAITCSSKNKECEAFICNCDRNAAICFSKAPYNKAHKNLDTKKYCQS

Phospholipase A2 [5] = molecular target: T2, Phospholipase A2; type: functional
cells [6] = type: functional, cell-based; remark: listed apart in the source
Cysteine protease ATG4B [7] = molecular target: T1, Cysteine protease ATG4B; type: functional
[8] = Luminescence Cell-Based Dose Retest to Confirm Inhibitors of Cancer Stem Cells. [Related pubchem assays (depositor defined):AID2717, AID2721]; type: functional; settings: Homo sapiens
[9] = NIH-3T3 fibroblast cytotoxicity, dose response, cytotoxicity control, cell-based, fluorescence, Alamar Blue, secondary assay (AID 2327); type: functional;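 note: NIH-3T3 mouse fibroblasts cultured with fluconazole at 8 µg/mL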
[10] = molecular target: Heat shock protein HSP 90-alpha (Homo sapiens, UniProt P07900); type: functional, organism-based
cells [11] = type: functional
A-375 [12] = test: MITF: Counter assay: A375 proliferation Measured in Cell-Based System Using Plate Reader - 2084-03_Inhibitor_Dose_DryPowder_Activity. [Related pubchem assays (depositor defined):AID488944]; type: functional; settings: Homo sapiens
A-375 [13] = test: proliferation inhibition in MITF-low A375 cells – cell-based, cherry-pick samples, set 2, counter-screen for MITF modulator project, dose response (AID 540335); type: functional; settings: Homo sapiens
[14] = molecular target: T3, Microphthalmia-associated transcription factor (Homo sapiens, UniProt O75030); test: reducers of TRPM1 reporter luminescence, concentration series – cell-based, SK-MEL-5, cherry-picked, set 3, MITF inhibitor project, dose response (AID 493073); type: functional;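 note: SK-MEL-5 melanoma cells with luciferase driven by the MITF target TRPM1 promoter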
T3 sequence (O75030 whole entry): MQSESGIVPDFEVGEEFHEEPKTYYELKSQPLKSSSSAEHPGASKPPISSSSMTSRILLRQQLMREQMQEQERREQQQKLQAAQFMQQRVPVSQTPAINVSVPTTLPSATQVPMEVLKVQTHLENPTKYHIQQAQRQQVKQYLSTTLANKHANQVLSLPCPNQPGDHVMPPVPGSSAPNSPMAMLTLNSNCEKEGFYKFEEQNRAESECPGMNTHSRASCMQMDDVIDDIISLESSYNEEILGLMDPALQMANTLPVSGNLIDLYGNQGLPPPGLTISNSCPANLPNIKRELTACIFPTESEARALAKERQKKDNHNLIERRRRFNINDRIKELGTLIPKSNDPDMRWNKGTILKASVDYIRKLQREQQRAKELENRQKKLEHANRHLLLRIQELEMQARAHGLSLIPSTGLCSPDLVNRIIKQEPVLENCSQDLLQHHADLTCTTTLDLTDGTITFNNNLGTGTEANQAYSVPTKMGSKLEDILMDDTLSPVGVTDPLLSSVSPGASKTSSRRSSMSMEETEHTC

Galanin receptor type 2 = Galanin receptor type 2 (Homo sapiens, UniProt O43603); test: Dose Response cell-based high-throughput screening assay to identify antagonists of galanin receptor 2 (GALR2). [Related pubchem assays: 828, 866 ]; type: functional
Sequence of Galanin receptor type 2 (O43603 whole entry): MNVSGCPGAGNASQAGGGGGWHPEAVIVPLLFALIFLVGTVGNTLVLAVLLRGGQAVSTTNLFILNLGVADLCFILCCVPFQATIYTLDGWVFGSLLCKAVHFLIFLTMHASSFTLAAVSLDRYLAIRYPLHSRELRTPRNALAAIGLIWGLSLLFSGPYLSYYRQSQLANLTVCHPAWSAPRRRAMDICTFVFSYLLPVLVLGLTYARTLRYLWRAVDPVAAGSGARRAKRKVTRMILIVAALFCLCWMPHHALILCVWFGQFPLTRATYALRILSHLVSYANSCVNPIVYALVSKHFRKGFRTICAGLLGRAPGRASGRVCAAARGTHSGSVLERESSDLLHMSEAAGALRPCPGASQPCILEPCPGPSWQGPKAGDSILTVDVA

[15] = fluconazole-exposed Candida albicans growth modulators – fluorescence, retest, confirmation (AID 2467); type: functional, cell-based
[16] = THP-1 cell cytotoxicity, dose response, cytotoxicity control for non-replicating M. tuberculosis project (AID 489025); type: functional
Beta-galactosidase = Beta-galactosidase (Escherichia coli, UniProt Q8VNN2); test: detection-enzyme interference by beta-gal modulators – biochemical, E. coli enzyme, set 3, artefact control for CCR6 antagonist project, dose response (AID 504712); type: functional
Sequence of Beta-galactosidase (Q8VNN2 whole entry): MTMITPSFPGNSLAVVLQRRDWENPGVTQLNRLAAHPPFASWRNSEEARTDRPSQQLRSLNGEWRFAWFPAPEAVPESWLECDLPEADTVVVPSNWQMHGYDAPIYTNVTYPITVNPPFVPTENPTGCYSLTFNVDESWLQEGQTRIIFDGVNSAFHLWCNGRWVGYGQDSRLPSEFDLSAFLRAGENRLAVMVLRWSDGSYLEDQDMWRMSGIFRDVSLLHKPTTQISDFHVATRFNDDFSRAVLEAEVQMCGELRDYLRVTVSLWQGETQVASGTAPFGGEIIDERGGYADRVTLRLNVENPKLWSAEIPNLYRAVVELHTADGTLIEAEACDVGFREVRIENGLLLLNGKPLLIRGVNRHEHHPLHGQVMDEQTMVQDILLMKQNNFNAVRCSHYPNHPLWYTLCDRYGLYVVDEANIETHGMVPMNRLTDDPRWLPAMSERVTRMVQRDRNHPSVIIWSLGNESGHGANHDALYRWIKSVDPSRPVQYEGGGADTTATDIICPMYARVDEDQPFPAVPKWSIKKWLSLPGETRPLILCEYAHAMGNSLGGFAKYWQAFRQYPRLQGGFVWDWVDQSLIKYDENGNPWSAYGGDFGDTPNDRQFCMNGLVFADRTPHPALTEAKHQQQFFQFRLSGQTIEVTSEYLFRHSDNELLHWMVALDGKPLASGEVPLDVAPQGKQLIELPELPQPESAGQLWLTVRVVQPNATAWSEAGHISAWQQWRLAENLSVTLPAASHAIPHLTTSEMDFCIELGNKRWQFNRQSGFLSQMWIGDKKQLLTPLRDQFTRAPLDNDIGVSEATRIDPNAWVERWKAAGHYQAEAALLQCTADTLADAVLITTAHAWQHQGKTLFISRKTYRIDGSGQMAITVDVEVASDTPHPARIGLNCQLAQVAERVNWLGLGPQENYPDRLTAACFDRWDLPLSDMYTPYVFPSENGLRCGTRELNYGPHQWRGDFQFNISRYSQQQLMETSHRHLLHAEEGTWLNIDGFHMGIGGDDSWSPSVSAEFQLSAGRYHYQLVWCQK

Escherichia coli = test: microbe, parasite or virus in culture
Mu-type opioid receptor = Mu-type opioid receptor (Homo sapiens, UniProt P35372); test: Counterscreen for agonists of heterodimerization of the mu 1 (OPRM1) and delta 1 (OPRD1) opioid receptors: Luminescence-based cell-based high throughput dose response assay to identify agonists of OPRM1 homodimerization.; type: functional;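 note: U2OS cells expressing OPRM1 and beta-arrestin as split beta-galactosidase partners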
Sequence of Mu-type opioid receptor (P35372 whole entry): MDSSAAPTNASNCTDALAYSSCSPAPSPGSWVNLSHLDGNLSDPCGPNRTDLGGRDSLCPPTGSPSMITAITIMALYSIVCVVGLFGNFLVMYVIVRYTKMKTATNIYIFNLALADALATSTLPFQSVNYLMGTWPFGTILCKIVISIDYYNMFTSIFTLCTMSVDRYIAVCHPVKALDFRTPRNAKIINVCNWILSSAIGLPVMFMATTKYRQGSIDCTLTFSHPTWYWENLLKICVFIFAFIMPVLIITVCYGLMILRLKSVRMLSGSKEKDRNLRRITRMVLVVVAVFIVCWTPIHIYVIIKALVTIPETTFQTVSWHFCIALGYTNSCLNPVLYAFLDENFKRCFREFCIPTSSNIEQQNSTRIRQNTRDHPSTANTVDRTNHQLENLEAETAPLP

[17] = molecular target: 5-hydroxytryptamine receptor 5A (Homo sapiens, UniProt P47898); test: Counterscreen for agonists of OPRM1-OPRD1 heterodimerization: luminescence-based cell-based high throughput dose response assay to identify agonists of 5-hydroxytryptamine (serotonin) 5A receptor (HTR5A). [Related pubchem assays (depositor defined):AID504326, AID504355, AID504692, AID504904, AID504905]; type: functional
Sequence of 5-hydroxytryptamine receptor 5A (P47898 whole entry): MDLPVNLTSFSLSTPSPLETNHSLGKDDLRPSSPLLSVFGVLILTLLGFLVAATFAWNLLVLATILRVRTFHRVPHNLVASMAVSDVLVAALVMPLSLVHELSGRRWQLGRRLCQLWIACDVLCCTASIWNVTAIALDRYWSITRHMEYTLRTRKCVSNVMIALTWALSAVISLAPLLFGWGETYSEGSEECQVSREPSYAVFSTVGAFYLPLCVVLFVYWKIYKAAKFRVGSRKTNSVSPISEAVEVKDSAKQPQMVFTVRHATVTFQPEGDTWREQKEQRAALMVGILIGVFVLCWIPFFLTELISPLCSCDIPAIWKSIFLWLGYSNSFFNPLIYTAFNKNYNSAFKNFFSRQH

[18] = molecular target: T4, DNA repair protein RAD52 homolog (Homo sapiens, UniProt P43351); type: functional, biochemical
T4 sequence (P43351 whole entry): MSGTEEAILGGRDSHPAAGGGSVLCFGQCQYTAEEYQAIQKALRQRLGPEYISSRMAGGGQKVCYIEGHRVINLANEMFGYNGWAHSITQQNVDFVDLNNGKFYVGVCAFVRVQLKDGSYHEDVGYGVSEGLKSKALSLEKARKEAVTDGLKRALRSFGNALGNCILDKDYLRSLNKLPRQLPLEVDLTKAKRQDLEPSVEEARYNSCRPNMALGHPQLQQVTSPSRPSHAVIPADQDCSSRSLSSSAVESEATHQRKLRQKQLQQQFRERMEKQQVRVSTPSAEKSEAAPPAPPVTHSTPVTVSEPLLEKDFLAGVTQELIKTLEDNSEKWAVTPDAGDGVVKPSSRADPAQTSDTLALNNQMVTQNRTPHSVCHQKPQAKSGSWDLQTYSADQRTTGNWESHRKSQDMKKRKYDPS

[19] = molecular target: Delta-type opioid receptor (Homo sapiens, UniProt P41143); test: Counterscreen for agonists of heterodimerization of the mu 1 (OPRM1) and delta 1 (OPRD1) opioid receptors: Luminescence-based cell-based high throughput dose response assay to identify agonists of OPRD1 homodimerization. [Related pubchem assays (depositor defined):AID504326, AID504355, AID504692, AID504904, AID504905]; type: functional
Sequence of Delta-type opioid receptor (P41143 whole entry): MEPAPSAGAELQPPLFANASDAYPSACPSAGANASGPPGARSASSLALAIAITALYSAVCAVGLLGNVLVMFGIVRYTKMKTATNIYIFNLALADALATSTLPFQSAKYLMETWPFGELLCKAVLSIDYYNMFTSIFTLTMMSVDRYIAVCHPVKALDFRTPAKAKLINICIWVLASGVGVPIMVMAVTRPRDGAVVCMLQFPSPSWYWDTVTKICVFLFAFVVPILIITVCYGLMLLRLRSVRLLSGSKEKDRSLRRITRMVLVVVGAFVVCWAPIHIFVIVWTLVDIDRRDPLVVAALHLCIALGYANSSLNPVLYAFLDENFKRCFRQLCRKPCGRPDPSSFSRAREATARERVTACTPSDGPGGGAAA

Hexokinase-1 = Hexokinase-1 (Homo sapiens, UniProt P19367); test: hexokinase 1 activity inhibitors, potency – biochemical, set 2, resazurin fluorescence coupled readout, selectivity assay for HKDC1 inhibitor project, SAR follow-up (AID 588356); type: functional
Sequence of Hexokinase-1 (P19367 whole entry): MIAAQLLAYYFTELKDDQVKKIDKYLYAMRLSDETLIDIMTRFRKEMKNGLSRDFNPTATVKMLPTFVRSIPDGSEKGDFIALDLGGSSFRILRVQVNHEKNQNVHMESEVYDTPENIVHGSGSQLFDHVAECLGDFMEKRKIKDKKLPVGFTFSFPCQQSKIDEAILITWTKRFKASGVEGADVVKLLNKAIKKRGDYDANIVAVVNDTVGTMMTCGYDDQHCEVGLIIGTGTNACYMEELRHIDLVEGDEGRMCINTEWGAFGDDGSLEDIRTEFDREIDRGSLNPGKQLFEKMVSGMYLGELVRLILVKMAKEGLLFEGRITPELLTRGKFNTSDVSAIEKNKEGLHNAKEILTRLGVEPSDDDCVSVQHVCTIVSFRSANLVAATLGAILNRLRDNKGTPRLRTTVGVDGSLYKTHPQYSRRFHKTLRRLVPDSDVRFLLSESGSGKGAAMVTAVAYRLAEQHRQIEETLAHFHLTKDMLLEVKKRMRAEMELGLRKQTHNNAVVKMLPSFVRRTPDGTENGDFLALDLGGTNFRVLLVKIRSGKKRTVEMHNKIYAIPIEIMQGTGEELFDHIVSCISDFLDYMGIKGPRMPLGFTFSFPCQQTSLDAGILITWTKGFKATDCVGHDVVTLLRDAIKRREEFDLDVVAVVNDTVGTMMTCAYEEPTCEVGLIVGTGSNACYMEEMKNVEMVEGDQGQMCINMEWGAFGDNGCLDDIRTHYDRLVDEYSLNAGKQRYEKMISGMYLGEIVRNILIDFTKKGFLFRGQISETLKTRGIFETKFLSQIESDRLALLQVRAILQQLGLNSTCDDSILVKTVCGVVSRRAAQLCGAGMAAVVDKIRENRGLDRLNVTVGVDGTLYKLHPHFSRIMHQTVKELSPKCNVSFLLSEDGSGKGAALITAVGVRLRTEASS

Hexokinase HKDC1 = molecular target: T5, Hexokinase HKDC1 (Homo sapiens, UniProt Q2TB90); test: analog inhibition of human HKDC1 activity – biochemical, set 2, SAR follow-up (AID 588355); type: functional
T5 sequence (Q2TB90 whole entry): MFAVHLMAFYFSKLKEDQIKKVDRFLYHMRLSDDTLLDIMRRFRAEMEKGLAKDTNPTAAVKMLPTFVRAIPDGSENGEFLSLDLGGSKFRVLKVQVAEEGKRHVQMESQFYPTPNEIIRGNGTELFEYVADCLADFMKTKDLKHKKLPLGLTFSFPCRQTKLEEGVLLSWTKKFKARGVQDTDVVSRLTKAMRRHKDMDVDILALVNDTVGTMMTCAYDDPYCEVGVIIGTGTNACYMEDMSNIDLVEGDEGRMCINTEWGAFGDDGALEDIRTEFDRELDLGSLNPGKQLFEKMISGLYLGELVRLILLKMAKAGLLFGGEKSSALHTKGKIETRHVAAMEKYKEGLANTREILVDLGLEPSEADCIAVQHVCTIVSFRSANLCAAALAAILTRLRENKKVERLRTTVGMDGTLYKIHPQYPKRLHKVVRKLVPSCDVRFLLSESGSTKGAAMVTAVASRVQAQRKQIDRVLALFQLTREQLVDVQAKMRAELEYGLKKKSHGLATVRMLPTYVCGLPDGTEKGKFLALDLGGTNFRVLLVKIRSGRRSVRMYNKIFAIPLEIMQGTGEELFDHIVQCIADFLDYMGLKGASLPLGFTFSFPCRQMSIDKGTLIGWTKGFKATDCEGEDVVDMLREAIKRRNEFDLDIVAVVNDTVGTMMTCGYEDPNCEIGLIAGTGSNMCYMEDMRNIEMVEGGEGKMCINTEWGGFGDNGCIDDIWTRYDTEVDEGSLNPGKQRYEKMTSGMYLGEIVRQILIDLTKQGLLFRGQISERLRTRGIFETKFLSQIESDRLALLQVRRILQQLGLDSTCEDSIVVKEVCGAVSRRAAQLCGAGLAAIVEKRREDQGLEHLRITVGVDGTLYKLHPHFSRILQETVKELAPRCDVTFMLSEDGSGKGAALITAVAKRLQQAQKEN

[20] = molecular target: T6, COUP transcription factor 2 (Homo sapiens, UniProt P24468); test: Luminescence-based cell-based high throughput dose response assay to identify inhibitors of COUP-TFII (NR2F2).; type: functional;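 note: HEK293 cells transiently cotransfected with COUP-TFII expression vector and reporter; luciferase reporter luminescence driven by COUP-TFII from the pX2-168 reporter plasmid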
T6 sequence (P24468 whole entry): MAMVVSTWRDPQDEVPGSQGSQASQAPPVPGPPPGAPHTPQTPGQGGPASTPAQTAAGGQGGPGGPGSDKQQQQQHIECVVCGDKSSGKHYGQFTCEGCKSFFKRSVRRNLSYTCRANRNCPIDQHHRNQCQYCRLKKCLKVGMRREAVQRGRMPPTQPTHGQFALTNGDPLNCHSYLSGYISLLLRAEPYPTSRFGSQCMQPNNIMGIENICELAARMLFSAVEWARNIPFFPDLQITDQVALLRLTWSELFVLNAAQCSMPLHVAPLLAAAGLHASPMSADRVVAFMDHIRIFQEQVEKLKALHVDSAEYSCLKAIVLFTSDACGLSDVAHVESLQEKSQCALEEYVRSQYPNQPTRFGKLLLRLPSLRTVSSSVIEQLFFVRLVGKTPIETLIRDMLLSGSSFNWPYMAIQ

[21] = non-specific 3'UTR reporter inhibition in Clone20-Shn3RL – cell-based, Renilla luciferase, cherry-picked, counter-screen for Shn3 inhibitor project, dose response (AID 624133); type: functional
[22] = HEK-293T viability loss, compound-treated – cell-based, uHTS hits, cytotoxicity control for B/T-cell NF-kB inhibitor project, dose response (AID 489019); type: functional;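 note: IC50 reflects cytotoxicity as loss of cell viability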
[23] = reduction of Shn3 3'UTR-driven luciferase in osteoblasts – cell-based, Clone20 osteoblasts, firefly luciferase, cherry-picked, dose response (AID 624132); type: functional;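 note: firefly luciferase luminescence from reporter carrying the Shn3 3'UTR in osteoblasts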
cells [24] = type: functional, cell-based; settings: HEK-CNG
INS1 = test: INS-1E survival protection against cytokine death – cell-based, luminescence, retest, dose response (AID 449756); type: functional; settings: Rattus norvegicus;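 note: cell death triggered by IL-1 beta plus TNF-alpha plus IFN-gamma mixture; protective hits raise ATP signal compared with cytokine alone wells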
Jurkat = test: blockers of NF-kB activation in T cells – Jurkat, luciferase reporter, luminescence, B- and T-cell, dose response (AID 489004); type: functional, cell-based; settings: Homo sapiens;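 note: NF-kB luciferase reporter Jurkat cells stimulated with PMA plus ionomycin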
Galanin receptor type 3 = Galanin receptor type 3 (Homo sapiens, UniProt O60755); test: Fluorescence-based cell-based primary high throughput dose response assay to identify antagonists of the Galanin Receptor 3 (GalR3).; type: functional
Sequence of Galanin receptor type 3 (O60755 whole entry): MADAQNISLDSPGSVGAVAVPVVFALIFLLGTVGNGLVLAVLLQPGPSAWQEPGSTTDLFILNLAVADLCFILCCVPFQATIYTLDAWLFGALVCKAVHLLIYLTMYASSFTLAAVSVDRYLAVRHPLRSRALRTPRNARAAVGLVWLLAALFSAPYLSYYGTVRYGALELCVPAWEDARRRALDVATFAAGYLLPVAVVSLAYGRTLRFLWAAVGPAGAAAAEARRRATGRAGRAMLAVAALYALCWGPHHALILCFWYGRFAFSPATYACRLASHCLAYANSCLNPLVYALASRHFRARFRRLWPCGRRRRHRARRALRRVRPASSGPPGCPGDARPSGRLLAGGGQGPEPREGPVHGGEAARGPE

Sequence of NS3 (A3EZJ3 whole entry): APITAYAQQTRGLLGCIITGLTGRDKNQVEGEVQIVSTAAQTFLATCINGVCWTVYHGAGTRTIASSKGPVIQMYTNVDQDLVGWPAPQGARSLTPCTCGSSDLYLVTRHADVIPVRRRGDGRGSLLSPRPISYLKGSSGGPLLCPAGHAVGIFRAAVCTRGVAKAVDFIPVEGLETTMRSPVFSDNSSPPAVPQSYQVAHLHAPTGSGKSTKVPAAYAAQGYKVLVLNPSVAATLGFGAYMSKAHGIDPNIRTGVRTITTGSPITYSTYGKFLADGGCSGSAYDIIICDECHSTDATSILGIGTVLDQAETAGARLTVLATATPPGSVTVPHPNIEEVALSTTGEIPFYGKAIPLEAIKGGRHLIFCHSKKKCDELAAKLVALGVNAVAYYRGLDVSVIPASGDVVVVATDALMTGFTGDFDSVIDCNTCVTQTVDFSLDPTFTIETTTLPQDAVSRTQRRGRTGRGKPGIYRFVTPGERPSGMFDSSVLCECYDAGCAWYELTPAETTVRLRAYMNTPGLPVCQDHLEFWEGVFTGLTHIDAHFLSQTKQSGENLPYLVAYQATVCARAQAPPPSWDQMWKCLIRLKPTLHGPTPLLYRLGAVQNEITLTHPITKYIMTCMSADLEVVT

CCOc1cccc(C2C(C(=O)c3ccc(C)o3)=C(O)C(=O)N2Cc2ccccc2)c1 (centres undefined)
IC50 (NS3): 4.29 µM (active)
CC50 [1]: > 100 µM (inactive)

Cc1cc(/C=N/n2c(COc3ccccc3)nc3ccccc3c2=O)c(O)c([N+](=O)[O-])c1
IC50 (Cysteine protease ATG4B [2]): 22.8 µM (inactive)
EC50 (cells [3]): 31.7 µM (active)
IC50 (Phospholipase A2 [4]): 10.5 µM (active)
IC50 (Phospholipase A2 [5]): 13.1 µM (active)
EC50 (cells [6]): > 350 µM (not active)
IC50 (Cysteine protease ATG4B [7]): 17.2 µM (active)
AC50 [8]: 20.9 µM (active)

CCOC(=O)c1cc([N+](=O)[O-])c([N+](=O)[O-])cc1NC(C)=O
EC50 [9]: 4.65 µM (inconclusive)
AC50 [10]: 2.59 µM (active)
IC50 (cells [11]): 9.64 µM (active)
AC50 (A-375 [12]): > 35 µM (active)
AC50 (A-375 [13]): > 35 µM (active)
AC50 [14]: 24.2 µM (active)
IC50 (Galanin receptor type 2): 10.3 µM (not active)
EC50 [15]: 2.01 µM (active)
CC50 [16]: 13.1 µM (active)
IC50 (Beta-galactosidase): > 66.6 µM (inactive)

O=[N+]([O-])c1cccc(COc2cccc(CN3CCCCC3)c2)c1
AC50 (Escherichia coli): 21.2 µM (active)

CN(C)CCCN(C(=O)c1ccc(Br)s1)c1nc2cc3c(cc2s1)OCCO3
EC50 (Mu-type opioid receptor): > 92.5 µM (inactive)
EC50 [17]: > 92.5 µM (inactive)
AC50 [18]: 21.1 µM (active)
EC50 [19]: > 92.5 µM (inactive)

Cc1ccccc1N1C(=O)c2ccccc2C1Nc1ccccc1 (centres undefined)
IC50 (Hexokinase-1): > 80 µM (inactive)
IC50 (Hexokinase HKDC1): > 80 µM (inactive)

COc1ccc(CCNc2ncnc3sccc23)cc1OC
IC50 [20]: 1.97 µM (active)
AC50 [21]: 1.5 µM (active)
IC50 [22]: > 80 µM (inactive)
AC50 [23]: < 0.26 µM (active)
EC50 (cells [24]): > 29.9 µM (inactive)
AC50 (INS1): 0.71 µM (active)
IC50 (Jurkat): > 80 µM (inactive)
IC50 (Galanin receptor type 3): 0.371 µM (active)
